The record followed here is US7399754B2, “N2-quinoline or isoquinoline substituted purine derivatives” (priority 2005, dated 2008).

One data set relates to human cancer cells. The experiment in a line: Human cancer cells transplanted to nude mice. The class given is in vivo. The text has this:
The in vivo anti-cancer activities of COMPOUND I were further evaluated using various other human cancer cells transplanted to nude mice.

For another data set, the system named is malignant cells. The experiment in a line: Clonal proliferation, cell cycle and apoptosis of malignant cells in vitro. In kind it is cell-based. The text has this: (§1) Pulse-exposure studies, using methods as described in Kubota et al., Cancer Res. 1998; 58: 3370-3375 and Campbell et al., J. Mol. Endocrinol.
The subject of another data set is leukemia cells. The data set can be described thus: MTT and SRB growth inhibition assays. In kind it is cell-based. The method, then: (§2) The anti-cancer activities of COMPOUND I were evaluated using the microtetrazoline (MTT) and sulforhodamine B (SRB) assays.
For a further data set, the system named is H-22 liver cancer cells. The experiment in a line: MTT and SRB growth inhibition assays. In kind it is cell-based. The method, then: as §2
The subject of a further data set is Lewis lung carcinomas. The data set can be described thus: Subcutaneous Lewis lung carcinoma growth in mice. The class given is in vivo. The note with it: for Tumor vol.: daily intralesional injections 50 mg/kg. The method, then:
(§3) To determine if Compound I could inhibit primary tumor growth, syngeneic mice (C57B 16/J) bearing subcutaneous Lewis lung carcinomas and H-22 liver cancer were treated with Compound I with daily intralesional injections of (50 mg/kg) 1 mg of Compound I per 20 g mouse body weight.
Inhibition of primary tumor growth was first observed at dose of 20 mg/kg/day. Increased doses of Compound I correlated with increased efficacy of tumor inhibition. Inhibition of metastatic growth occurred at doses of approximately 20 mg/kg/day. […] In contrast, tumor in animals treated with saline grew rapidly in size to >6.000 mm^3, leading to the demise of all animals on day 17 after tumor implantation.

Data set [1] deals with LNCap prostate cancer cells. The experiment in a line: Pulse-exposure clonal growth study. In kind it is cell-based.
From the text: as §1

Data set [2] has as its system PC-3 prostate cancer cells. The experiment in a line: Pulse-exposure clonal growth study. In kind it is cell-based. Particulars: PC-3, pulse-exposure.
From the text: as §1

In data set [3] the test system is Du145 prostate cancer cells. The experiment in a line: Pulse-exposure clonal growth study. The class given is cell-based.
From the text: as §1

A further data set deals with H-22 liver cancer. The experiment in a line: Subcutaneous H-22 liver cancer growth in mice. In kind it is in vivo. Particulars: 50 mg/kg daily intralesional, 14 days treatment period. The method, then:
as §3

The subject of data set [4] is Lewis lung carcinoma cells. The data set can be described thus: MTT and SRB growth inhibition assays. In kind it is cell-based, murine. Particulars: Mus musculus. The method, then:
as §2

A further data set relates to most cancer types. The data set can be described thus: MTT and SRB growth inhibition assays, many cancer types. The class given is cell-based. The method, then: as §2

Values after ≈ are worked out from the molar mass of the structure shown.

In general, IC50 refers to the point on the concentration scale where inhibition reaches its midpoint. Lower therefore signals greater potency in that assay.

As for `c1cnc2ccc(Nc3nc(NC4CC4)c4nc[nH]c4n3)cc2c1` [Compound I], in the data set with human cancer cells, the “in vivo growth of human cancers” value was “inhibits in vivo growth of many types of human cancers”. In addition, in the data set with malignant cells (prostate and breast cancers, neuroepithelioma, melanoma, leukemia), the “clonal proliferation of a variety of malignant cells in vitro” value is “inhibit the clonal proliferation”. In addition, in the data set with malignant cells (some of these cells), the “cell cycle arrest and apoptosis” value is “induces cell cycle arrest and apoptosis”. Besides, the IC50 with leukemia cells was 2.5 µg/mL (≈ 7.88 µM); with H-22 liver cancer cells, 2.24 µg/mL (≈ 7.06 µM); in [4], 2.81 µg/mL (≈ 8.85 µM); with most cancer types (most cancer types), 500 to 3000 nM. Further, the Tumor vol. in the data set with Lewis lung carcinomas (day 2) amounted to 200 mm^3; with Lewis lung carcinomas (day 4), 300 mm^3; in the data set on Lewis lung carcinomas (day 6), 500 mm^3; in the data set on Lewis lung carcinomas (day 8), 700 mm^3; with Lewis lung carcinomas (day 10) it was 900 mm^3; in the data set with Lewis lung carcinomas (day 12), 1200 mm^3. Also, the Tumor vol. with Lewis lung carcinomas (day 14) was 1500 mm^3; with Lewis lung carcinomas (day 16), 1800 mm^3; in the data set on Lewis lung carcinomas (day 17), 2200 mm^3. In the data set with Lewis lung carcinomas (treated tumor-bearing mice), the toxicity result was “no detectable toxicity”. In addition, the “dose at which inhibition of metastatic growth occurred” value in the data set with Lewis lung carcinomas (tumor-bearing mice) is listed as “approximately 20 mg/kg/day”. Further, in the data set with Lewis lung carcinomas (tumor-bearing mice), the “dose at which inhibition of primary tumor growth was first observed” value is listed as 20 mg/kg/day. The “50% inhibition (ED50) of clonal growth” value in data set [1], in data set [2] and in [3] was “approximately 18 μg/ml” each time. Also, in the data set on H-22 liver cancer, the “growth of H-22 liver cancer in mice” value was “primary tumor growth was inhibited”. For the same compound, the “growth in vitro of many types of cancers” value in the data set on most cancer types (MTT and SRB assays) was “significantly inhibited growth”.
